In the NIST ThermoML archive (doi:10.1016/j.jct.2013.07.006):

How the values were obtained:
[1] = for molar entropy: 101.33 kPa, Vacuum adiabatic calorimetry
[2] = molar heat capacity at constant pressure; conditions: 101.33 kPa, Vacuum adiabatic calorimetry

[Cl][Ru-2]([Cl])([Cl])([Cl])([Cl])[Cl].[NH4+].[NH4+] [diammonium hexachlororuthenate]
Conditions	molar entropy, [1] [J/K/mol]	molar heat capacity at constant pressure, [2] [J/K/mol]
5 K, Crystal 2	0.1106	0.3475
5.89 K, Crystal 2	–	0.5877
7.09 K, Crystal 2	–	1.079
8.03 K, Crystal 2	–	1.495
9.46 K, Crystal 2	–	2.313
10 K, Crystal 2	0.9395	2.661
10.8 K, Crystal 2	–	3.236
11.99 K, Crystal 2	–	4.23
13.2 K, Crystal 2	–	5.407
14.5 K, Crystal 2	–	6.916
15 K, Crystal 2	2.827	7.358
15.9 K, Crystal 2	–	8.589
17.35 K, Crystal 2	–	10.37
18.81 K, Crystal 2	–	12.31
20 K, Crystal 2	5.82	13.97
20.31 K, Crystal 2	–	14.26
21.81 K, Crystal 2	–	16.45
23.4 K, Crystal 2	–	18.76
25 K, Crystal 2	9.703	21.24
25.1 K, Crystal 2	–	21.38
26.81 K, Crystal 2	–	24.18
28.54 K, Crystal 2	–	26.91
30 K, Crystal 2	14.44	29.49
30.27 K, Crystal 2	–	30.01
32.02 K, Crystal 2	–	33.06
33.91 K, Crystal 2	–	36.87
35 K, Crystal 2	19.68	38.87
35.95 K, Crystal 2	–	40.66
37.99 K, Crystal 2	–	44.72
40 K, Crystal 2	25.51	48.89
40.05 K, Crystal 2	–	48.96
42.12 K, Crystal 2	–	53.55
44.2 K, Crystal 2	–	58.17
45 K, Crystal 2	31.89	59.91
46.3 K, Crystal 2	–	62.77
48.41 K, Crystal 2	–	67.6
50 K, Crystal 2	38.8	71.36
50.8 K, Crystal 2	–	73.15
53.47 K, Crystal 2	–	79.64
55 K, Crystal 2	46.15	83.48
56.15 K, Crystal 2	–	86.22
58.85 K, Crystal 2	–	92.96
60 K, Crystal 2	53.94	95.95
61.55 K, Crystal 2	–	100.02
64.27 K, Crystal 2	–	107.34
65 K, Crystal 2	62.15	109.25
67.13 K, Crystal 2	–	114.99
70 K, Crystal 2	70.73	122.72
70.82 K, Crystal 2	–	125.13
75 K, Crystal 2	79.67	136.44
75.14 K, Crystal 2	–	136.94
79.45 K, Crystal 2	–	149.83
80 K, Crystal 2	88.97	151.49
83.79 K, Crystal 2	–	162.3
85 K, Crystal 2	98.53	165.79
88.18 K, Crystal 2	–	174.11
90 K, Crystal 2	108.42	179.09
92.84 K, Crystal 1	–	184.67
92.84 K, Crystal 2	–	184.67
95 K, Crystal 1	118.32	184.75
97.88 K, Crystal 1	–	182
100 K, Crystal 1	127.71	180.76
103.06 K, Crystal 1	–	178.1
105 K, Crystal 1	136.44	179.26
108.18 K, Crystal 1	–	182.59
110 K, Crystal 1	144.92	184.83
113.23 K, Crystal 1	–	188.41
115 K, Crystal 1	153.24	190.49
118.27 K, Crystal 1	–	194.14
120 K, Crystal 1	161.47	196.14
123.32 K, Crystal 1	–	199.88
125 K, Crystal 1	169.62	201.54
128.39 K, Crystal 1	–	205.12
130 K, Crystal 1	177.6	206.62
133.46 K, Crystal 1	–	209.77
135 K, Crystal 1	185.5	211.35
138.55 K, Crystal 1	–	214.6
140 K, Crystal 1	193.31	215.93
143.8 K, Crystal 1	–	219.17
145 K, Crystal 1	200.96	220.17
149.2 K, Crystal 1	–	223.33
150 K, Crystal 1	208.44	224.24
154.62 K, Crystal 1	–	227.65
160 K, Crystal 1	223.16	231.48
160.04 K, Crystal 1	–	231.39
165.48 K, Crystal 1	–	235.13
170 K, Crystal 1	237.38	238.13
170.9 K, Crystal 1	–	238.71
176.33 K, Crystal 1	–	242.45
180 K, Crystal 1	251.18	244.78
181.77 K, Crystal 1	–	245.78
187.21 K, Crystal 1	–	249.27
190 K, Crystal 1	264.65	251.43
192.66 K, Crystal 1	–	253.09
198.19 K, Crystal 1	–	256.75
200 K, Crystal 1	277.7	257.83
203.88 K, Crystal 1	–	260.16
209.62 K, Crystal 1	–	263.57
210 K, Crystal 1	290.43	263.74
215.39 K, Crystal 1	–	266.9
220 K, Crystal 1	302.81	269.06
221.19 K, Crystal 1	–	269.39
226.95 K, Crystal 1	–	272.55
230 K, Crystal 1	314.87	274.21
232.71 K, Crystal 1	–	275.46
238.48 K, Crystal 1	–	277.79
240 K, Crystal 1	326.68	278.37
244.25 K, Crystal 1	–	279.78
250 K, Crystal 1	338.07	281.53
250.07 K, Crystal 1	–	281.53
256.04 K, Crystal 1	–	283.36
260 K, Crystal 1	349.21	284.44
262.1 K, Crystal 1	–	285.02
268.12 K, Crystal 1	–	286.68
270 K, Crystal 1	359.93	287.18
274.34 K, Crystal 1	–	288.18
280 K, Crystal 1	370.49	290.18
280.52 K, Crystal 1	–	290.51
286.4 K, Crystal 1	–	292.01
290 K, Crystal 1	380.72	293.09
292.34 K, Crystal 1	–	293.92
298.15 K, Crystal 1	388.87	295.66
298.3 K, Crystal 1	–	295.25
300 K, Crystal 1	390.7	296.16
304.21 K, Crystal 1	–	297.33
310 K, Crystal 1	400.43	298.91
310.08 K, Crystal 1	–	298.91
315.97 K, Crystal 1	–	300.4
320 K, Crystal 1	409.99	301.15
321.87 K, Crystal 1	–	301.57
325 K, Crystal 1	414.64	302.23

Conditions	Triple point temperature [K]
[1], Crystal 2, Adiabatic calorimetry	92.84
